Experimental data reported in the supplement of paper PMC10307832.

How the values were obtained:
Test in all cases: relative viability (nuclei count vs DMSO), 5 days (fraction); higher = more cells survive
Ispinesib + Decitabine = compound: Cc1ccc(C(=O)N(CCCN)[C@@H](c2nc3cc(Cl)ccc3c(=O)n2Cc2ccccc2)C(C)C)cc1 [Ispinesib] + Nc1ncn([C@H]2C[C@H](O)[C@@H](CO)O2)c(=O)n1 [Decitabine] (partner 2 µM)
How it was run: (§1)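 Nuclei were stained with Hoechst during a one-step fixation (final 0.05% Triton X-100, 1% formaldehyde, 1 ug/ml Hoechst) carried out 5 days after dosing, then counted on 4× images. The cells, lung cancer lines in 1536-well plates, had been dosed by pin tool the day after seeding with one drug alone or a fixed anchor-drug dose plus five library-drug doses (not always all listed) in √10 steps. Relative viability is the nuclei count in treated wells divided by that in vehicle wells, and each value is the median of duplicate plates.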

Linsitinib + Crizotinib = compound: C[C@]1(O)C[C@@H](c2nc(-c3ccc4ccc(-c5ccccc5)nc4c3)c3c(N)nccn32)C1 [Linsitinib] + C[C@@H](Oc1cc(-c2cnn(C3CCNCC3)c2)cnc1N)c1c(Cl)ccc(F)c1Cl [Crizotinib] (partner 1 µM)
How it was run: as §1

Linsitinib = compound: C[C@]1(O)C[C@@H](c2nc(-c3ccc4ccc(-c5ccccc5)nc4c3)c3c(N)nccn32)C1 [Linsitinib]
How it was run: (§2)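 Viability was read as treated-well nuclei divided by vehicle-well nuclei, using the median across plates. Lung cancer cell lines in 1536-well plates were kept overnight at 37 °C, pinned with five √10-spaced library-drug doses, and after 5 days were Hoechst-stained, imaged at 4× and counted in MetaXpress. Plates passed only with control CV below 25% and at least one doubling.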

Ispinesib = compound: Cc1ccc(C(=O)N(CCCN)[C@@H](c2nc3cc(Cl)ccc3c(=O)n2Cc2ccccc2)C(C)C)cc1 [Ispinesib]
How it was run: as §2

Cell Line: UMC-11
- relative viability (Ispinesib + Decitabine; first compound 0.001 µM): 0.67
- relative viability (Ispinesib + Decitabine; first compound 0.003162 µM): 0.904
- relative viability (Ispinesib + Decitabine; first compound 0.01 µM): 0.583
- relative viability (Ispinesib + Decitabine; first compound 0.03162 µM): 0.28
- relative viability (Ispinesib + Decitabine; first compound 0.1 µM): 0.23
- relative viability (Linsitinib + Crizotinib; first compound 0.01 µM): 0.698
- relative viability (Linsitinib + Crizotinib; first compound 0.03162 µM): 0.448
- relative viability (Linsitinib + Crizotinib; first compound 0.1 µM): 0.642
- relative viability (Linsitinib + Crizotinib; first compound 1 µM): 0.549
- relative viability (Linsitinib; 0.01 µM): 0.975
- relative viability (Linsitinib; 0.03162 µM): 0.854
- relative viability (Linsitinib; 0.1 µM): 1.02
- relative viability (Linsitinib; 0.3162 µM): 0.546
- relative viability (Linsitinib; 1 µM): 0.875
- relative viability (Linsitinib; 1 µM, anchor plate): 1.01
- relative viability (Ispinesib; 0.001 µM): 1.01
- relative viability (Ispinesib; 0.003162 µM): 1.02
- relative viability (Ispinesib; 0.01 µM): 0.835
- relative viability (Ispinesib; 0.03162 µM): 0.32
- relative viability (Ispinesib; 0.1 µM): 0.264
